Source: patent publication US20250302784A1, “MYOBLAST PROLIFERATION PROMOTER AND MYOBLAST-PROLIFERATION PROMOTING COMPOSITION, AND MUSCLE ATROPHY INHIBITOR AND MUSCLE-ATROPHY INHIBITING COMPOSITION” (MARUZEN PHARMACEUTICALS CO., LTD., priority 2022, published 2025)

Key:
[1] = test system: skeletal muscle-derived myoblasts (C2C12) of mice; assay: Test for myoblast-proliferation promotion effect (MTT assay); format: cell-based; settings: for Myoblast proliferation promotion rate (%): cultured 2 days, MTT, rate = A/B×100 vs cells without test sample
Procedure: A test on a myoblast proliferation effect of the compound represented by Structural Formula (1) (using the compound available from Sigma-Aldrich) was performed according to the following testing method.
After culturing skeletal muscle-derived myoblasts (C2C12) of mice in a Dulbecco's modified eagle medium (DMEM) containing 10% FBS, the cells were collected by trypsinization. The collected cells were diluted with a 5% FBS-containing DMEM so that a concentration of the cells was to be 2.0×10^4 cells/mL. Then, the dilution was seeded by 100 μL per well in a 96-well plate, followed by culturing for 6 hours. After completing the culture, a test sample dissolved in a 5% FBS-containing DMEM (see Table 1 below for the final concentration) was added by 100 μL per well, followed by culturing for 2 days. Even in the case where the test sample was not added, culturing was performed in the same manner except that the test sample was not added.
The myoblast-proliferation promotion effect was measured using an MTT assay. After completing the culture, the medium was removed, and MTT dissolved in a PBS buffer solution (PBS(−)) at a final concentration of 0.4 mg/mL was added by 100 μL per well. After culturing for 2 hours, blue formazan generated within the cells was extracted with 100 μL of 2-propanol. After the extraction, absorbance at a wavelength of 570 nm was measured. In addition, absorbance at a wavelength of 650 nm was measured as turbidity. The difference between the absorbance at the wavelength of 570 nm and the absorbance at the wavelength of 650 nm was used to determine an amount of blue formazan generated.
The myoblast proliferation promotion rate (%) was calculated from the obtained results according to the following equation.
Myoblast proliferation promotion rate (%)=A/B×100
In the equation above, A and B are as follows. • A: An amount of blue formazan generated in the cells to which the test sample was added. • B: An amount of blue formazan generated in the cells to which the test sample was not added.

[2] = test system: rat model of disuse muscle atrophy; assay: Test for muscle atrophy inhibition effect in rat model of disuse muscle atrophy (hindlimb suspension); format: in vivo, Wistar rats
Procedure: Whether muscle atrophy was inhibited by orally administering the compound represented by Structural Formula (1) (using the compound available from Cayman Chemical) to a rat model of disuse muscle atrophy for 14 days was tested according to the following testing method.
Seven week-old male Wistar (Crlj: WI) rats were acquired from Charles River Laboratories Japan, Inc., and were bred in the environment where a temperature was 23±3° C. and the humidity was 55±15% and in a cycle of 12 hours in light and 12 hours in dark. The rats were acclimated for one week before use, and were allowed to freely intake a solid feed (CRF-1, available from Oriental Yeast Co., Ltd.) and tap water.
After one week of acclimation, the Wistar rats were randomly divided into groups of eight. The rats were bred for 14 days in the state where the tail of each rat was held with clips so that the rat's hind legs were raised above the floor according to the method of Morey-Holton E R et al. During the breeding period, the rats were allowed to move around within a case with their forelimbs, and were allowed to freely intake water and a feed.
The test groups were (1) a normal group (without hindlimb suspension), (2) a control group (hindlimb suspension+0 mg/kg of the compound represented by Structural Formula (1)), (3) a group with the compound represented by Structural Formula (1) (hindlimb suspension+125 mg/kg of the compound represented by Structural Formula (1)).
The compound represented by Structural Formula (1) was dissolved in water, and the solution was administered by oral gavage every day for 14 days. Water was administered to the control group.
At the end of the test, the rats were euthanized by exsanguination under isoflurane anesthesia. Then, the soleus muscles were removed and the muscle weight was measured. In Table 2, the soleus muscle weight is an average value.

## O=C(O)CCc1ccc(O)c(O)c1 [3,4-dihydroxyhydrocinnamic acid]
[1]; conclusion from Table 1
  Myoblast-proliferation promotion effect (in words): excellent myoblast-proliferation promotion effect
[1]; test sample 25 μmol/L
  Myoblast proliferation promotion rate (%): 106.4%
[1]; test sample 100 μmol/L
  Myoblast proliferation promotion rate (%): 108.0%
[2]; hindlimb-suspended male Wistar rats, 125 mg/kg oral gavage daily for 14 days, average value (normal group 359.1, control group 139.3)
  Soleus muscle weight: 151.3
[2]; hindlimb-suspended rats, 125 mg/kg oral, 14 days
  Soleus muscle weight compared to the control group (in words): increased compared to the control group
[2]; rat model of disuse muscle atrophy, 125 mg/kg oral, 14 days
  Muscle atrophy inhibition (in words): inhibited muscle atrophy
